For data set [1], the target named is T1, TrkA (Homo sapiens, UniProt P04629).
T1 construct: expressed in transfected cells; host or cells: U2OS
In words: In vitro Trk receptor modulation assay (Enzyme Fragment Complementation), U2OS cells over-expressing TrkA. Type of data set: cell-based. Particulars: compound pre-mixed with ligand (NGF), final 10 ng/mL, 3 hours, modulator mode. The text has this: (§1) A high throughput cell-based screen was used to identify positive modulators of TrkA and TrkB. The screen involves the use of cell-based assay overexpressing TrkA, or TrkB. The purpose of the assay is to identify compounds that modulate neurotrophin signalling (Forsell et al 2012). The assay can be used in inhibitor mode using a high concentration of ligand, in modulator mode using an intermediate concentration and in agonist mode using a low concentration of ligand.
(§2) The assay uses Enzyme Fragment Complementation (EFC) technique, which is a proximity-based assay. Briefly, cells used in this assay over-express two fusion proteins, i.e. the receptor, which can be one of TrkA or TrkB fused to a small peptide of beta-galactosidase and an adaptor protein, i.e. SHC1 (or any other Trk-adaptor protein) fused to the major part of beta-galactosidase. […] The proximity between the small activating peptide on the receptor and the major part of beta-galactosidase on the adaptor protein leads to an active beta-galactosidase enzyme. The activation of the receptor is quantified by measuring the amount of active beta-galactosidase by its conversion of a non-luminescent substrate into a luminescent product.
(§3) U2OS-cells, over-expressing TrkA or TrkB, were plated in 96- or 384-well plates and incubated overnight. On the following day, test compound was pre-mixed with ligand (NGF) and the ligand-compound mixture is then added to the cells to yield a final ligand concentration of 10 ng/mL. After 3 hours of incubation at room temperature, the incubation is stopped by the addition of a beta-galactosidase substrate mixture containing detergents. The substrate mixture is incubated for 60 minutes at ambient temperature. The luminescence is thereafter read by the use of a plate reader.

The nature of data set [2]: Human liver microsomal stability. Type of data set: in vitro ADME. The following applies: human liver microsomes 0.5 mg/mL, 3 μM compound, NADPH, 37° C. The method, then: A 10 mM stock solution (in DMSO) was prepared for each compound. From the intermediate stock solution of 2 mM, a working solution of 0.5 mM was prepared by diluting the compound in Acetonitrile:water (50:50). The compound (1.8 μL of working solution) was spiked in 0.1 M potassium phosphate buffer (260.7 μL), pH 7.4 at a concentration of 3 μM (0.1% DMSO). Following this, human liver microsomes (pooled, Invitrogen, #HMMCPL) (7.5 μL; final protein conc. 0.5 mg/mL) were added. The aforementioned sample was incubated at 37° C. for 5 min. Subsequently, 30 μL of 10 mM NADPH prepared in 0.1 M potassium phosphate buffer was added (as a co-factor) to initiate the reaction. The samples were then incubated at 37° C. for 0, 20, 40, 60 and 120 min.
At each time point (0, 20, 40, 60 and 120 min), 40 μL of the samples were withdrawn and reactions were stopped using 360 μL chilled acetonitrile or methanol containing suitable internal standard (Carbamazepine). The samples were centrifuged and the supernatants was analyzed in duplicate by LC-MS/MS. The percent compound remaining at each time point was calculated with respect to that of the 0 min sample. Control samples were run without NADPH for initial and final time point and blank samples was prepared using DMSO (without the test compound).
For comparison, the experiment was also performed with known Trk receptor signalling modulator 1-methyl-3-[3-methyl-4-(4-trifluoromethanesulfonylphenoxy)phenyl]-1,3,5-triazinane-2,4,6-trione) (ponazuril). Ponazuril is metabolized very slowly in vivo and this prolonged exposure creates an increased risk of side effects if the compound is administered systemically. This causes significant challenges to the development of the compound as a systemic drug.
(In general: Liver microsomes are a subcellular fraction often used to study metabolism.)

Data set [3] has as its target T2, TrkB (Homo sapiens, UniProt Q16620).
T2 construct: expressed in transfected cells; host or cells: U2OS
Nature of the data set: In vitro Trk receptor modulation assay (Enzyme Fragment Complementation), U2OS cells over-expressing TrkB. Type of data set: cell-based. Particulars: compound pre-mixed with ligand (NGF), final 10 ng/mL, 3 hours, modulator mode.
Source text: as §1, §2, §3

In data set [4] the test system is C57/Bl6 mice. In words: Passive avoidance task in scopolamine-treated mice. Type of data set: in vivo. The following applies: mice treated with scopolamine 0.3 mg/kg s.c.; compound single s.c. administration 60 min prior to training, different doses. The method, then:
The passive avoidance (PA) is an aversive learning task based on classical (Pavlovian) fear conditioning that allows for analysis of both facilitation and impairment of memory function by adjusting the unconditioned stimulus, i.e. the electrical foot shock. Commonly a cognitive-impairing agent is administered to the animals to mimic the neurochemical disturbances present in various cognitive disorders e.g. cholinergic (scopolamine) and glutamatergic (MK-801) deficits.
Prior to testing, the animals are brought to the experimental room where they were allowed to habituate for 60 min. The test is conducted using a modified shuttle box with two communicating compartments of equal size with a small sliding door built into the separating wall and a stainless-steel bar floor. One of the compartments is not illuminated and thus black whereas the other compartment (the light one) is illuminated by an electric bulb, installed on the top of a plexiglass cover. The PA training is conducted in a single session. […] Latency to cross over into the dark compartment (training latency) is recorded. […] The latency to cross over into the dark compartment with all four feet is measured (retention latency) as well as time in bright compartment and a number of other relevant parameters (e.g. number of visits in the dark compartment). […]

T1 sequence (P04629 33-796): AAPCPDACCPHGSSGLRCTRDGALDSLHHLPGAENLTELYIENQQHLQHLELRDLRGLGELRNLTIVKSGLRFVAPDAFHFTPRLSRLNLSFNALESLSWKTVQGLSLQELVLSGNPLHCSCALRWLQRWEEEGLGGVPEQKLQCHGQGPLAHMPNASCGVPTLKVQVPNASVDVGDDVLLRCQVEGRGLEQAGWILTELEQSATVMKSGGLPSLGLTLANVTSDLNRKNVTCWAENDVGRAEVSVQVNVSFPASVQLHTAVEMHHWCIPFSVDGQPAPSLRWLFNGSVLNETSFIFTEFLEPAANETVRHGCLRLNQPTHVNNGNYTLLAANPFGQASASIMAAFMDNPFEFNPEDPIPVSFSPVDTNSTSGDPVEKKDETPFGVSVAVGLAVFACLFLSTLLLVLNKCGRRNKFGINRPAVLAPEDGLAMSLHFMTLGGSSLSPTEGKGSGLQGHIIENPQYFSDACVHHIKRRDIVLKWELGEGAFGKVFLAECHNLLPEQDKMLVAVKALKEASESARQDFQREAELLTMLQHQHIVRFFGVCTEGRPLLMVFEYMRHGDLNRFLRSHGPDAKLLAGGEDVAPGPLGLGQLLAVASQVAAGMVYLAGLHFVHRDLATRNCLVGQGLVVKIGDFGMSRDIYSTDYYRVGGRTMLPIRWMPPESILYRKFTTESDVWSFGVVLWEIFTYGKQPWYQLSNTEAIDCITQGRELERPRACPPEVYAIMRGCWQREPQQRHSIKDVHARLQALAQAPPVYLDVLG
T2 sequence (Q16620 32-822): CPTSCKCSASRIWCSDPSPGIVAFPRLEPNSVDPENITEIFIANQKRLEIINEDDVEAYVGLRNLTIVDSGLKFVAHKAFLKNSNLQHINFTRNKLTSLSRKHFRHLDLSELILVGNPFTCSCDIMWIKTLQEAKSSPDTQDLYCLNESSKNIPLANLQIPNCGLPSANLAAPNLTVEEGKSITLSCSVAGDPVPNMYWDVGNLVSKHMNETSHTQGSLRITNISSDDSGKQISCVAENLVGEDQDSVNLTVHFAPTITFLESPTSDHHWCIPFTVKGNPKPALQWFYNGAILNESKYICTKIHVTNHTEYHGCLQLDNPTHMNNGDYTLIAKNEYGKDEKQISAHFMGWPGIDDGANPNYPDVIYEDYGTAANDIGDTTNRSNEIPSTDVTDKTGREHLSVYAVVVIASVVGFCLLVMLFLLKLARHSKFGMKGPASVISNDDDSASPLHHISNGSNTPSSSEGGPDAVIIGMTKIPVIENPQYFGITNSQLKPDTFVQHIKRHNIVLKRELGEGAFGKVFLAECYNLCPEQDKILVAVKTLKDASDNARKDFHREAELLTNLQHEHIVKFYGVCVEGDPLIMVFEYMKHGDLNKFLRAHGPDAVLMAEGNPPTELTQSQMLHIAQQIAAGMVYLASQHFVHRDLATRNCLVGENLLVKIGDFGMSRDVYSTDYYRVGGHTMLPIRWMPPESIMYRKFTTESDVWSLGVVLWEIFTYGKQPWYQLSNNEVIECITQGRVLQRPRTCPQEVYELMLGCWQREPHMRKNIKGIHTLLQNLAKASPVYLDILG

By EC50 is commonly meant the concentration that produces a half-maximal response. Low readings indicate higher potency in that assay, high ones lower potency in that assay. With `CSc1cc(-n2c(=O)[nH]c(=O)n(-c3cccc(C)c3)c2=O)ccc1Oc1ccccc1` [Example 14, 1-(3-methylphenyl)-3-[3-(methylsulfanyl)-4-phenoxyphenyl]-1,3,5-triazinane-2,4,6-trione], the EC50 in data set [1] worked out at 650 nM; in data set [3], 300 nM. For the same compound, the “% of parent compound metabolized after 120 min” value (from here on “% of parent compound metabolized”) in data set [2] was determined as 53.4%.

Consider `CCc1cc(-n2c(=O)[nH]c(=O)n(-c3ccccc3)c2=O)ccc1Oc1ccccc1` [Example 6, 1-(3-ethyl-4-phenoxyphenyl)-3-phenyl-1,3,5-triazinane-2,4,6-trione], for which the EC50 in data set [1] came out at 210 nM; in data set [3], 220 nM.

For the compound `COCc1cccc(-n2c(=O)[nH]c(=O)n(-c3ccc(Oc4ccccc4)c(C)c3)c2=O)c1` [Example 2, 1-[3-(methoxymethyl)phenyl]-3-(3-methyl-4-phenoxyphenyl)-1,3,5-triazinane-2,4,6-trione], the EC50 in data set [1] was determined as 430 nM; in data set [3] it was 260 nM. Also, the “% of parent compound metabolized” value in data set [2] came to 13.3%.

For `Cc1cc2cccc(-n3c(=O)[nH]c(=O)n(-c4ccc(Oc5ccccc5)c(C)c4)c3=O)c2o1` [Example 4, 1-(2-methyl-1-benzofuran-7-yl)-3-(3-methyl-4-phenoxyphenyl)-1,3,5-triazinane-2,4,6-trione], the EC50 in data set [1] came out at 300 nM; in data set [3], 270 nM. Moreover, the “% of parent compound metabolized” value in data set [2] was determined as 37.7%.

For the compound `Cc1cccc(-n2c(=O)[nH]c(=O)n(-c3ccc(Oc4ccccc4)c(OCC(=O)N4CCCC4)c3)c2=O)c1` [Example 9, 1-(3-methylphenyl)-3-{3-[2-oxo-2-(pyrrolidin-1-yl)ethoxy]-4-phenoxyphenyl}-1,3,5-triazinane-2,4,6-trione], the EC50 in data set [1] stood at 210 nM; in data set [3], 150 nM. Moreover, the “% of parent compound metabolized” value in data set [2] turned out to be 82.8%.

On to `Cc1cccc(-n2c(=O)[nH]c(=O)n(-c3ccc(Oc4ccccc4)c(CN4CCNC4=O)c3)c2=O)c1` [Example 5, 1-(3-methylphenyl)-3-{3-[(2-oxoimidazolidin-1-yl)methyl]-4-phenoxyphenyl}-1,3,5-triazinane-2,4,6-trione], for which the values for the EC50 in data set [1] and in data set [3] were 300 nM and 120 nM, respectively. The “% of parent compound metabolized” value in data set [2] was found to be 15.4%.

`Cc1cccc(-n2c(=O)[nH]c(=O)n(-c3ccc(Oc4ccccc4)c(OCC(=O)N4CCOCC4)c3)c2=O)c1` [Example 11, 1-(3-methylphenyl)-3-{3-[2-(morpholin-4-yl)-2-oxoethoxy]-4-phenoxyphenyl}-1,3,5-triazinane-2,4,6-trione]: the EC50 turned out to be 270 nM in data set [1] and 180 nM in data set [3]. The “% of parent compound metabolized” value in data set [2] is 57.3%.

Regarding `COc1ccc(-n2c(=O)[nH]c(=O)n(-c3ccc(Oc4ccccc4)c(C)c3)c2=O)cc1` [Example 8, 1-(4-methoxyphenyl)-3-(3-methyl-4-phenoxyphenyl)-1,3,5-triazinane-2,4,6-trione], the half-maximal effective concentration (EC50) in data set [1] came out at 350 nM; in data set [3], 230 nM.

For the compound `Cc1cccc(-n2c(=O)[nH]c(=O)n(-c3ccc(Oc4ccccc4)c(OCC(=O)N4CCC4)c3)c2=O)c1` [Example 12, 1-{3-[2-(azetidin-1-yl)-2-oxoethoxy]-4-phenoxyphenyl}-3-(3-methylphenyl)-1,3,5-triazinane-2,4,6-trione], the values for the concentration for a half-maximal effect (EC50) in data set [1] and in data set [3] were 410 nM and 220 nM, respectively.

For the compound `Cc1cc(-n2c(=O)[nH]c(=O)n(C)c2=O)ccc1Oc1ccc(S(=O)(=O)C(F)(F)F)cc1` [ponazuril, 1-methyl-3-[3-methyl-4-(4-trifluoromethanesulfonylphenoxy)phenyl]-1,3,5-triazinane-2,4,6-trione, reference compound], the “% of parent compound metabolized” value in data set [2] amounted to 3.1%.

For the compound `COCc1cc(-n2c(=O)[nH]c(=O)n(-c3cccc(C)c3)c2=O)ccc1Oc1ccccc1` [Example 3, 1-[3-(methoxymethyl)-4-phenoxyphenyl]-3-(3-methylphenyl)-1,3,5-triazinane-2,4,6-trione], the EC50 came out at 330 nM in data set [1] and 310 nM in data set [3]. Also, the “cognitive function, retention latency within the bright area (passive avoidance)” value in data set [4] was “improves cognitive function”. Moreover, the “% of parent compound metabolized” value in data set [2] is on record as 82.0%.

As for `Cc1cccc(-n2c(=O)[nH]c(=O)n(-c3ccc(Oc4ccccc4)c(OCC(=O)N4CCCCC4)c3)c2=O)c1` [Example 10, 1-(3-methylphenyl)-3-{3-[2-oxo-2-(piperidin-1-yl)ethoxy]-4-phenoxyphenyl}-1,3,5-triazinane-2,4,6-trione], the EC50 in data set [1] stood at 280 nM; in data set [3], 320 nM. Also, the “% of parent compound metabolized” value in data set [2] turned out to be 99.8%.

Consider `CSc1cc(-n2c(=O)[nH]c(=O)n(-c3ccccc3)c2=O)ccc1Oc1ccccc1` [Example 13, 1-[3-(methylsulfanyl)-4-phenoxyphenyl]-3-phenyl-1,3,5-triazinane-2,4,6-trione], for which the concentration giving a half-maximal response (EC50) in data set [1] was found to be 640 nM; in data set [3], 380 nM. Also, the “% of parent compound metabolized” value in data set [2] is given as 4.7%.

As for `Cc1cccc(-n2c(=O)[nH]c(=O)n(-c3ccc(Oc4ccccc4)c(CN4CCCC4=O)c3)c2=O)c1` [Example 15, 1-(3-methylphenyl)-3-{3-[(2-oxopyrrolidin-1-yl)methyl]-4-phenoxyphenyl}-1,3,5-triazinane-2,4,6-trione], the EC50 in data set [1] amounted to 40 nM; in data set [3] it was 110 nM. Moreover, the “% of parent compound metabolized” value in data set [2] came to 29.6%.

Consider `CCc1cc(-n2c(=O)[nH]c(=O)n(-c3cccc(C)c3)c2=O)ccc1Oc1ccccc1` [Example 7, 1-(3-ethyl-4-phenoxyphenyl)-3-(3-methylphenyl)-1,3,5-triazinane-2,4,6-trione], for which the 50% effective concentration (EC50) came to 130 nM in data set [1] and 90 nM in data set [3]. The “% of parent compound metabolized” value in data set [2] turned out to be 48.8%.
